This passage reports Ki results from patent US8580842B2, “Heteroaryl-substituted 1,3-dihydroindol-2-one derivatives and medicaments containing them” (Abbott GmbH & Co. KG, priority 2003, dated 2013).

Structures can show the parent of a compound that is named as a salt.

The target of the assay is T1, human V1b receptors (Homo sapiens, UniProt P47901).
T1 construct: expressed in transfected cells; host or cells: CHO-K1 (membrane preparation V1b-3H2)
T1 sequence (P47901 1-424): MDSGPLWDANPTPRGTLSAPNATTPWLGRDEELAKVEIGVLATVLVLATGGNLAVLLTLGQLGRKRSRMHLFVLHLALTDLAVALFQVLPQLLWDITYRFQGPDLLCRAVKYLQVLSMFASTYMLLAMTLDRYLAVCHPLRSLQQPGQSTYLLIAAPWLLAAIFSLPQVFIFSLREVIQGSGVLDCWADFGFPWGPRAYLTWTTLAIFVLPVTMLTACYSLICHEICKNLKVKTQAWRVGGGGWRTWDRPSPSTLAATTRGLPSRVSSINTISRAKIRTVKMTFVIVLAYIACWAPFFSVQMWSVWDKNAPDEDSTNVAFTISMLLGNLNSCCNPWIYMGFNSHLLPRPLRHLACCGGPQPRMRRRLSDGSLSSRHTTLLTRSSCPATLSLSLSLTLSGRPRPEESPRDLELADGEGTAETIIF
As to the kind of experiment: Vasopressin V1b receptor binding assay. The conditions noted are these: membranes from CHO-K1 cells expressing human V1b receptors, displacement of 1.5 nM 3H-AVP; read-out: Binding affinity for the vasopressin V1b receptor. The protocol: Vasopressin V1b Receptor Binding Assay
The binding of the compounds of this invention to the vasopressin V1b receptor was determined with the following assay:
Compounds were dissolved in a concentration of 10^−2 M or 10^−3 M in DMSO. Further dilutions were performed with water.
The procedure for the binding assay was based on the method of Tahara et al. (Tahara A et al., Brit. J. Pharmacol. 125, 1463-1470 (1998)). Assays (0.250 ml) consisted of membranes (58 μg protein) from CHO-K1 cells permanently expressing human V1b receptors (preparation V1b-3H2, containing protease inhibitors, Roche complete Mini #1836170), 1.5 nM ^3H-AVP (8-Arg-vasopressin, NET 800) in incubation buffer (total binding) and different concentrations of test compound (displacement). Non-specific binding was defined with 10^−6 M AVP. Assays were performed in triplicate.
Incubation buffer: 50 mM Tris, 10 mM MgCl2, 0.1% BSA adjusted to pH 7.4 with HCl.
After incubation, 60 min at room temperature, bound and free radioligand was separated by filtration under vacuum through Whatman GF/B glass fibre mats using a Skatron cell harvester 7000.
Liquid scintillation counting was performed in beta-counters, Tricarb model 2000 or 2200CA (Packard). Dpm were calculated by a programme with standardisation using a standard quench series.
Evaluation of binding parameters was performed by non-linear regression analysis with SAS. The strategy of this program is similar to the program LIGAND described by Munson and Rodbard (Munson PJ and Rodbard D, Analytical Biochem 107, 220-239 (1980)).
In the case of `COc1ncccc1C1(OC(=O)N2CCC(N3CCN(C)CC3)CC2)C(=O)N(S(=O)(=O)c2ccccc2)c2ccc(Cl)cc21` (centres unmarked) [Example 103, 4-(4-Methyl-piperazin-1-yl)-piperidine-1-carboxylic acid 1-benzenesulfonyl-5-chloro-3-(2-methoxy-pyridin-3-yl)-2-oxo-2,3-dihydro-1H-indol-3-yl ester], the Ki was less than 50 nM.

`COc1ccccc1C1(N2C[C@H](O)C[C@H]2C(=O)N(C)C)C(=O)N(S(=O)(=O)c2cccc3cccnc23)c2ccc(Cl)cc21` (single isomer, unassigned) [Example 28]: the Ki was less than 50 nM.

As for `COc1ccsc1S(=O)(=O)N1C(=O)C(c2cccnc2OC)(N2C[C@H](O)C[C@H]2C(=O)N(C)C)c2cc(OC(F)(F)F)ccc21` (single isomer, unassigned) [Example 286], the Ki lay within 50 to 500 nM. Take `COc1ccccc1C1(N2C[C@H](O)C[C@H]2C(=O)N(C)C)C(=O)N(S(=O)(=O)c2cnc(Cl)c(Br)c2)c2ccc(Cl)cc21` (stereo partly drawn) [Example 59, (2S,4R)-1-[5-Chloro-1-(5-bromo-6-chloropyridine-3-sulfonyl)-3-(2-methoxy-phenyl)-2-oxo-2,3-dihydro-1H-indol-3-yl]-4-hydroxy-pyrrolidine-2-carboxylic acid dimethylamide]: the Ki is greater than 500 nM.

In the case of `COc1ncccc1C1(OC(=O)N2CCN(C3CCN(C)CC3)CC2)C(=O)N(S(=O)(=O)c2ccccc2)c2ccc(Cl)cc21` (centres unmarked) [Example 76, 4-(1-Methyl-piperidin-4-yl)-piperazine-1-carboxylic acid 1-benzenesulfonyl-5-chloro-3-(2-methoxy-pyridin-3-yl)-2-oxo-2,3-dihydro-1H-indol-3-yl ester], the Ki is less than 50 nM. For the compound `COc1ccccc1C1(N2C[C@H](O)C[C@H]2C(=O)N(C)C)C(=O)N(S(=O)(=O)c2ccc(Br)cn2)c2ccc(Cl)cc21` (single isomer, unassigned) [Example 48], the Ki was less than 50 nM. With `COc1ncc(C2(N3C[C@H](O)C[C@H]3C(=O)N(C)C)C(=O)N(S(=O)(=O)c3cccs3)c3ccc(Cl)cc32)c(OC)n1` (single isomer, unassigned) [Example 281] the figure was 50 to 500 nM.

For `COc1ccc(S(=O)(=O)N2C(=O)C(OC(=O)N3CCN(C4CCN(C)CC4)CC3)(c3cccnc3OC)c3cc(Cl)ccc32)c(OC)c1` (centres unmarked) [Example 105, 4-(1-Methyl-piperidin-4-yl)-piperazine-1-carboxylic acid 5-chloro-1-(2,4-dimethoxy-benzenesulfonyl)-3-(2-methoxy-pyridin-3-yl)-2-oxo-2,3-dihydro-1H-indol-3-yl ester], the Ki is less than 50 nM.

Take `COc1ccc(S(=O)(=O)N2C(=O)C(c3cccnc3OC)(N3CCCC[C@H]3C(=O)N(C)C)c3cc(Cl)ccc32)c(OC)c1` (single isomer, unassigned) [Example 237]: the Ki is less than 50 nM. As for `COc1ncccc1C1(OC(=O)N2CCN(C3CCN(C)CC3)CC2)C(=O)N(S(=O)(=O)c2cn(C)cn2)c2ccc(Cl)cc21` (centres unmarked) [Example 165, 4-(1-Methyl-piperidin-4-yl)-piperazine-1-carboxylic acid 5-chloro-3-(2-methoxy-pyridin-3-yl)-1-(1-methyl-1H-imidazole-4-sulfonyl)-2-oxo-2,3-dihydro-1H-indol-3-yl ester diacetate], the Ki lay within 50 to 500 nM. For the compound `COc1ccc(S(=O)(=O)N2C(=O)C(c3cccnc3OC)(N3C[C@H](O)C[C@H]3C(=O)N(C)C)c3cc(OC)ccc32)c(OC)c1` (single isomer, unassigned) [Example 230, fumarate], the Ki was less than 50 nM. The figure for `COc1ccc(S(=O)(=O)N2C(=O)C(c3cccnc3OC)(N3C[C@H](O)C[C@H]3C(=O)N(C)C)c3ccccc32)c(OC)c1` (single isomer, unassigned) [Example 225] is 50 to 500 nM; for `CCOc1ccccc1C1(NC(=O)N2CCN(C3CCN(C)CC3)CC2)C(=O)N(S(=O)(=O)c2sccc2OC)c2ccc(OC)cc21` (centres unmarked) [Example 125, 4-(1-Methyl-piperidin-4-yl)-piperazine-1-carboxylic acid [3-(2-ethoxy-phenyl)-5-methoxy-1-(3-methoxy-thiophene-2-sulfonyl)-2-oxo-2,3-dihydro-1H-indol-3-yl]-amide] it is less than 50 nM. `COc1ccc(S(=O)(=O)N2C(=O)C(OC(=O)N3CCN(C4CCN(C)CC4)CC3)(c3ccccn3)c3cc(Cl)ccc32)c(OC)c1` (centres unmarked) [Example 104, 4-(1-Methyl-piperidin-4-yl)-piperazine-1-carboxylic acid 5-chloro-1-(2,4-dimethoxy-benzenesulfonyl)-2-oxo-3-pyridin-2-yl-2,3-dihydro-1H-indol-3-yl ester trishydrochloride]: the Ki was less than 50 nM. Consider `COc1ccc(S(=O)(=O)N2C(=O)C(OC(=O)N3CCN(C4CCN(C)CC4)CC3)(c3cccnc3OC)c3cc(Cl)ccc32)cc1` (centres unmarked) [Example 115, 4-(1-Methyl-piperidin-4-yl)-piperazine-1-carboxylic acid 5-chloro-1-(4-methoxy-benzenesulfonyl)-3-(2-methoxy-pyridin-3-yl)-2-oxo-2,3-dihydro-1H-indol-3-yl ester diacetate], for which the Ki is less than 50 nM. With `COc1ncccc1C1(OC(=O)N2CCN(C3CCN(C)CC3)CC2)C(=O)N(S(=O)(=O)c2cc3ccccc3s2)c2ccc(Cl)cc21` (centres unmarked) [Example 172, 4-(1-Methyl-piperidin-4-yl)-piperazine-1-carboxylic acid 1-(benzo[b]thiophene-2-sulfonyl)-5-chloro-3-(2-methoxy-pyridin-3-yl)-2-oxo-2,3-dihydro-1H-indol-3-yl ester diacetate] the figure was 50 to 500 nM. Regarding `COc1ccc(S(=O)(=O)N2C(=O)C(c3cccnc3OC)(N3C[C@H](O)C[C@H]3C(=O)N(C)C)c3cc(OC(F)(F)F)ccc32)c(OC)c1` (single isomer, unassigned) [Example 245], the Ki is less than 50 nM. The figure for `COc1ccccc1C1(N2C[C@H](O)C[C@H]2C(=O)N(C)C)C(=O)N(S(=O)(=O)c2ncc(Br)cc2C)c2ccc(Cl)cc21` (single isomer, unassigned) [Example 53] is less than 50 nM. For the compound `COc1ccccc1C1(N2C[C@H](O)C[C@H]2C(=O)N(C)C)C(=O)N(S(=O)(=O)c2ccc(N3CCOCC3)nc2)c2ccc(Cl)cc21` (single isomer, unassigned) [Example 56], the Ki is less than 50 nM.

In the case of `COc1ccc(S(=O)(=O)N2C(=O)C(c3cccnc3OC)(N3C[C@H](O)C[C@H]3C(=O)N(C)C)c3cc(Cl)ccc32)c(OC)c1` (single isomer, unassigned) [Example 6], the Ki fell in the range of 50 to 500 nM. As for `CCOc1ccccc1C1(OC(=O)N2CCN(C3CCN(C)CC3)CC2)C(=O)N(S(=O)(=O)c2cccc3cccnc23)c2ccc(C#N)cc21` (centres unmarked) [Example 158, 4-(1-Methyl-piperidin-4-yl)-piperazine-1-carboxylic acid 5-cyano-3-(2-ethoxy-phenyl)-2-oxo-1-(quinoline-8-sulfonyl)-2,3-dihydro-1H-indol-3-yl ester], the Ki is less than 50 nM. The figure for `COc1ccc(S(=O)(=O)N2C(=O)C(N[C@@H](C)C(=O)N(C)C)(c3cccnc3OC)c3cc(Cl)ccc32)c(OC)c1` (single isomer, unassigned) [Example 221] is less than 50 nM. With `COc1ccc(S(=O)(=O)N2C(=O)C(c3cccnc3OC)(N3C[C@H](O)C[C@H]3C(=O)N(C)C)c3cc(Cl)ccc32)cc1` (single isomer, unassigned) [Example 240], the Ki is less than 50 nM.
